We go through 7 molecules from patent US5530126A, “Process for the preparation of substituted 6-(pyrazol-3yl)-1,4-benzoxazin-3-ones” (Monsanto Company, priority 1994, dated 1996).

What all share (assay type): in vivo
Assay [1] deals with Annual bluegrass. Nature of the assay: Pre-emergence herbicide test. As to conditions: read-out: % plant inhibition (Anbg); for inhibition at 1120 g/ha: 1.12 kg/ha; for inhibition at 11210 g/ha: 11.21 kg/ha. Put shortly:
(§1)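 Seeds or perennial propagules sown on compacted topsoil in pans; known amount of active ingredient in organic solvent (e.g., acetone) or water applied directly to seed bed, then covered with untreated topsoil. Greenhouse, bottom-watered; % inhibition scored about 10-14 days (usually 11 days) after seeding.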

Assay [2] concerns Barnyardgrass. Nature of the assay: Pre-emergence herbicide test. Particulars: Echinochloa crus-galli, read-out: % plant inhibition (Bygr); for inhibition at 1120 g/ha: 1.12 kg/ha; for inhibition at 11210 g/ha: 11.21 kg/ha. Put shortly:
as §1

In assay [3] the test system is Cocklebur. Nature of the assay: Pre-emergence herbicide test. Particulars: Xanthium strumarium, read-out: % plant inhibition (Cobu); for inhibition at 1120 g/ha: 1.12 kg/ha; for inhibition at 11210 g/ha: 11.21 kg/ha. Summed up:
as §1

Assay [4] has as its system Downy Brome. The experiment in a line: Pre-emergence herbicide test. As to conditions: Bromus tectorum, read-out: % plant inhibition (Dobr); for inhibition at 1120 g/ha: 1.12 kg/ha; for inhibition at 11210 g/ha: 11.21 kg/ha. Summed up:
as §1

Assay [5] concerns Indian Mustard. The experiment in a line: Pre-emergence herbicide test. As to conditions: Brassica juncea, read-out: % plant inhibition (Inmu); for inhibition at 1120 g/ha: 1.12 kg/ha; for inhibition at 11210 g/ha: 11.21 kg/ha. Put shortly:
as §1

Assay [6] deals with Morningglory. The experiment in a line: Pre-emergence herbicide test. Particulars: Ipomoea, read-out: % plant inhibition (Mogl); for inhibition at 1120 g/ha: 1.12 kg/ha; for inhibition at 11210 g/ha: 11.21 kg/ha. Summed up:
as §1

Assay [7] relates to Seedling johnsongrass. The experiment in a line: Pre-emergence herbicide test. Particulars: Sorghum halepense, read-out: % plant inhibition (Sejg); for inhibition at 1120 g/ha: 1.12 kg/ha; for inhibition at 11210 g/ha: 11.21 kg/ha. Summed up: as §1
Assay [8] deals with Velvetleaf. The experiment in a line: Pre-emergence herbicide test. As to conditions: Abutilon theophrasti, read-out: % plant inhibition (Vele); for inhibition at 1120 g/ha: 1.12 kg/ha; for inhibition at 11210 g/ha: 11.21 kg/ha. Summed up: as §1
For assay [9], the system named is Wild buckwheat. The experiment in a line: Pre-emergence herbicide test. As to conditions: Fallopia convolvulus, read-out: % plant inhibition (Wibw); for inhibition at 1120 g/ha: 1.12 kg/ha; for inhibition at 11210 g/ha: 11.21 kg/ha. Put shortly:
as §1

Assay [10] relates to Yellow nutsedge. The experiment in a line: Pre-emergence herbicide test. As to conditions: Cyperus, read-out: % plant inhibition (Yens); for inhibition at 1120 g/ha: 1.12 kg/ha; for inhibition at 11210 g/ha: 11.21 kg/ha. Put shortly: as §1
In assay [11] the test system is Annual bluegrass. The experiment in a line: Post-emergence herbicide test. Particulars: read-out: % plant inhibition (Anbg); for inhibition at 1120 g/ha: 1.12 kg/ha; for inhibition at 11210 g/ha: 11.21 kg/ha. Put shortly:
(§2)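 Seeds or propagules are pressed into compacted topsoil, covered and sub-irrigated in the greenhouse. At two to three weeks the plants are atomizer-sprayed (170.3 kPa, 1870 L/Ha, ~0.4% emulsifier by volume). Percent inhibition relative to control is observed about 10–14 days later.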

Assay [12] relates to Barnyardgrass. Nature of the assay: Post-emergence herbicide test. As to conditions: Echinochloa crus-galli, read-out: % plant inhibition (Bygr); for inhibition at 1120 g/ha: 1.12 kg/ha; for inhibition at 11210 g/ha: 11.21 kg/ha. Put shortly: as §2
Assay [13] deals with Cocklebur. Nature of the assay: Post-emergence herbicide test. As to conditions: Xanthium strumarium, read-out: % plant inhibition (Cobu); for inhibition at 1120 g/ha: 1.12 kg/ha; for inhibition at 11210 g/ha: 11.21 kg/ha. Summed up: as §2
Assay [14] relates to Downy Brome. The experiment in a line: Post-emergence herbicide test. Particulars: Bromus tectorum, read-out: % plant inhibition (Dobr); for inhibition at 1120 g/ha: 1.12 kg/ha; for inhibition at 11210 g/ha: 11.21 kg/ha. Put shortly:
as §2

The subject of assay [15] is Indian Mustard. The experiment in a line: Post-emergence herbicide test. As to conditions: Brassica juncea, read-out: % plant inhibition (Inmu); for inhibition at 1120 g/ha: 1.12 kg/ha; for inhibition at 11210 g/ha: 11.21 kg/ha. Summed up:
as §2

Assay [16] relates to Morningglory. The experiment in a line: Post-emergence herbicide test. As to conditions: Ipomoea, read-out: % plant inhibition (Mogl); for inhibition at 1120 g/ha: 1.12 kg/ha; for inhibition at 11210 g/ha: 11.21 kg/ha. Put shortly: as §2
Assay [17] concerns Seedling johnsongrass. The experiment in a line: Post-emergence herbicide test. As to conditions: Sorghum halepense, read-out: % plant inhibition (Sejg); for inhibition at 1120 g/ha: 1.12 kg/ha; for inhibition at 11210 g/ha: 11.21 kg/ha. Put shortly:
as §2

For assay [18], the system named is Velvetleaf. Nature of the assay: Post-emergence herbicide test. Particulars: Abutilon theophrasti, read-out: % plant inhibition (Vele); for inhibition at 1120 g/ha: 1.12 kg/ha; for inhibition at 11210 g/ha: 11.21 kg/ha. Summed up:
as §2

Assay [19] deals with Wild buckwheat. Nature of the assay: Post-emergence herbicide test. As to conditions: Fallopia convolvulus, read-out: % plant inhibition (Wibw); for inhibition at 1120 g/ha: 1.12 kg/ha; for inhibition at 11210 g/ha: 11.21 kg/ha. Put shortly:
as §2

The test system of assay [20] is Yellow nutsedge. The experiment in a line: Post-emergence herbicide test. As to conditions: Cyperus, read-out: % plant inhibition (Yens); for inhibition at 1120 g/ha: 1.12 kg/ha; for inhibition at 11210 g/ha: 11.21 kg/ha. Summed up: as §2

Take `CCS(=O)(=O)Nc1cc(-c2nn(C)c(C(F)(F)F)c2Cl)c(Cl)cc1Cl` [Compound 92]: the inhibition at 1120 g/ha in the assay with Annual bluegrass [1] was found to be 0%; in the assay on Barnyardgrass [2] it was 0%; in the assay with Cocklebur [3], 20%; in the assay on Downy Brome [4], 0%; with Indian Mustard [5] it was 20%; in the assay with Morningglory [6], 80%. Moreover, the inhibition at 1120 g/ha was found to be 0% in the assay on Seedling johnsongrass [7]; 90% in the assay with Velvetleaf [8]; 80% in the assay with Wild buckwheat [9]; 0% with Yellow nutsedge [10]; 30% with Annual bluegrass [11]; 30% in the assay with Barnyardgrass [12]. Besides, the inhibition at 1120 g/ha in the assay on Cocklebur [13] was found to be 80%; in the assay with Downy Brome [14] it was 50%; with Indian Mustard [15] it was 80%; in the assay on Morningglory [16], 100%; with Seedling johnsongrass [17], 40%; in the assay on Velvetleaf [18], 100%. Also, the figures for the inhibition at 1120 g/ha with Wild buckwheat [19] and with Yellow nutsedge [20] were 80% and 20%, respectively.
For the molecule `Cn1nc(-c2cc(COCCF)c(Cl)cc2F)c(Cl)c1C(F)(F)F` [Compound 116], the inhibition at 1120 g/ha in the assay with Annual bluegrass [1] stood at 90%; in the assay with Barnyardgrass [2] it was 90%; with Cocklebur [3], 50%; in the assay on Downy Brome [4], 80%; in the assay with Indian Mustard [5], 90%; in the assay with Morningglory [6], 90%. Besides, the inhibition at 1120 g/ha in the assay on Seedling johnsongrass [7] turned out to be 90%; in the assay with Velvetleaf [8], 100%; in the assay on Wild buckwheat [9] it was 100%; with Yellow nutsedge [10] it was 0%; with Annual bluegrass [11], 80%; in the assay with Barnyardgrass [12] it was 80%. The inhibition at 1120 g/ha with Cocklebur [13] came to 100%; in the assay on Downy Brome [14], 70%; in the assay on Indian Mustard [15], 80%; in the assay on Morningglory [16] it was 100%; with Seedling johnsongrass [17], 70%; in the assay on Velvetleaf [18], 100%. In addition, the inhibition at 1120 g/ha stood at 80% with Wild buckwheat [19] and 20% with Yellow nutsedge [20].
With `Cn1nc(-c2cc(N3CCOCC3)c(Cl)cc2F)c(Cl)c1C(F)(F)F` [Compound 99], the inhibition at 11210 g/ha is 80% with Annual bluegrass [1]; 90% with Barnyardgrass [2]; 80% in the assay with Cocklebur [3]; 100% in the assay with Downy Brome [4]; 100% in the assay on Indian Mustard [5]; 90% in the assay on Morningglory [6]. Further, the inhibition at 11210 g/ha turned out to be 90% in the assay on Seedling johnsongrass [7]; 100% in the assay with Velvetleaf [8]; 100% with Wild buckwheat [9]; 30% in the assay with Yellow nutsedge [10]; 100% with Annual bluegrass [11]; 100% in the assay with Barnyardgrass [12]. The inhibition at 11210 g/ha with Cocklebur [13] stood at 90%; with Downy Brome [14], 90%; in the assay on Indian Mustard [15] it was 100%; with Morningglory [16] it was 100%; in the assay with Seedling johnsongrass [17], 100%; in the assay on Velvetleaf [18] it was 100%. The inhibition at 11210 g/ha in the assay with Wild buckwheat [19] was determined as 100%; in the assay on Yellow nutsedge [20], 10%.
`Cn1nc(-c2cc(N(S(C)(=O)=O)S(C)(=O)=O)c(Cl)cc2Cl)c(Cl)c1C(F)(F)F` [Compound 87]: the inhibition at 11210 g/ha in the assay on Annual bluegrass [1] was 10%; in the assay on Barnyardgrass [2], 40%; in the assay with Cocklebur [3], 10%; with Downy Brome [4] it was 20%; with Indian Mustard [5], 70%; with Morningglory [6] it was 70%. Further, the inhibition at 11210 g/ha is 30% with Seedling johnsongrass [7]; 90% in the assay on Velvetleaf [8]; 90% with Wild buckwheat [9]; 10% in the assay with Yellow nutsedge [10]; 10% with Annual bluegrass [11]; 20% with Barnyardgrass [12]. Moreover, the inhibition at 11210 g/ha in the assay with Cocklebur [13] amounted to 50%; in the assay on Downy Brome [14] it was 0%; in the assay on Indian Mustard [15] it was 30%; in the assay on Morningglory [16], 70%; in the assay on Seedling johnsongrass [17], 40%; in the assay on Velvetleaf [18] it was 100%. Further, the inhibition at 11210 g/ha turned out to be 40% in the assay on Wild buckwheat [19] and 10% with Yellow nutsedge [20].
With `Cn1nc(-c2cc(OCc3ccccn3)c(Cl)cc2F)c(Cl)c1C(F)(F)F` [Compound 251], the inhibition at 1120 g/ha was found to be 50% with Annual bluegrass [1]; 0% in the assay on Barnyardgrass [2]; 30% in the assay on Cocklebur [3]; 80% in the assay on Downy Brome [4]; 20% with Indian Mustard [5]; 40% with Morningglory [6]. In addition, the inhibition at 1120 g/ha amounted to 70% with Seedling johnsongrass [7]; 60% in the assay on Velvetleaf [8]; 90% with Wild buckwheat [9]; 0% in the assay with Yellow nutsedge [10]; 80% with Annual bluegrass [11]; 90% with Barnyardgrass [12]. Besides, the inhibition at 1120 g/ha worked out at 90% in the assay with Cocklebur [13]; 100% with Downy Brome [14]; 70% in the assay with Indian Mustard [15]; 100% in the assay with Morningglory [16]; 100% in the assay on Seedling johnsongrass [17]; 100% in the assay on Velvetleaf [18]. The inhibition at 1120 g/ha in the assay on Wild buckwheat [19] turned out to be 90%; in the assay on Yellow nutsedge [20] it was 10%.
In the case of `CCOC(=O)c1cc(-c2nn(C)c(C(F)(F)F)c2Cl)c(F)cc1Cl` [Compound 148, 2-Chloro-5-(4-chloro-1-methyl-5-(trifluoromethyl)-1H-pyrazol-3-yl)-4-fluorobenzoic acid, ethyl ester], the inhibition at 1120 g/ha in the assay with Annual bluegrass [1] turned out to be 70%; in the assay with Barnyardgrass [2], 90%; in the assay on Cocklebur [3], 90%; with Downy Brome [4], 80%; with Indian Mustard [5], 100%; in the assay with Morningglory [6], 100%. Further, the inhibition at 1120 g/ha in the assay on Seedling johnsongrass [7] is 50%; in the assay on Velvetleaf [8], 100%; in the assay with Wild buckwheat [9], 100%; in the assay with Yellow nutsedge [10], 0%; with Annual bluegrass [11], 100%; in the assay on Barnyardgrass [12], 100%. In addition, the inhibition at 1120 g/ha in the assay on Cocklebur [13], in the assay on Downy Brome [14], in the assay with Indian Mustard [15], with Morningglory [16], in the assay on Seedling johnsongrass [17] and in the assay with Velvetleaf [18] was 100% each time. For the same molecule, the inhibition at 1120 g/ha with Wild buckwheat [19] turned out to be 100%; in the assay on Yellow nutsedge [20], 20%.
Consider `Cn1nc(C(F)(F)F)c(Cl)c1-c1ccc(Cl)cc1` [Compound 66], for which the inhibition at 11210 g/ha with Annual bluegrass [1] was determined as 50%; in the assay on Barnyardgrass [2] it was 10%; in the assay with Cocklebur [3] it was 20%; in the assay with Downy Brome [4], 60%; in the assay with Indian Mustard [5], 50%; with Morningglory [6], 100%. Further, the inhibition at 11210 g/ha with Seedling johnsongrass [7] was found to be 90%; in the assay with Velvetleaf [8], 90%; in the assay with Wild buckwheat [9], 90%; in the assay with Yellow nutsedge [10] it was 0%; with Annual bluegrass [11], 0%; in the assay with Barnyardgrass [12] it was 20%. Besides, the inhibition at 11210 g/ha came to 0% with Cocklebur [13]; 30% in the assay with Downy Brome [14]; 30% with Indian Mustard [15]; 70% in the assay on Morningglory [16]; 80% in the assay with Seedling johnsongrass [17]; 50% in the assay with Velvetleaf [18]. For the same molecule, the inhibition at 11210 g/ha in the assay on Wild buckwheat [19] amounted to 100%; in the assay with Yellow nutsedge [20], 0%.
